Test results published in US11083793B2, “Epidermal growth factor receptor (EGFR) targeted photosensitizers” (Health Research, Inc., priority 2016, dated 2021).

Legend:
ABCG2 [1] = target: T1, ABCG2 (Homo sapiens, UniProt Q9UNQ0); test: In vitro PDT efficacy with/without Gleevec (MTT), UMUC3; assay type: cell-based; conditions: UMUC3 cells
T1 construct: endogenous in cells; host or cells: UMUC3 bladder cancer cells
T1 sequence (Q9UNQ0 1-655): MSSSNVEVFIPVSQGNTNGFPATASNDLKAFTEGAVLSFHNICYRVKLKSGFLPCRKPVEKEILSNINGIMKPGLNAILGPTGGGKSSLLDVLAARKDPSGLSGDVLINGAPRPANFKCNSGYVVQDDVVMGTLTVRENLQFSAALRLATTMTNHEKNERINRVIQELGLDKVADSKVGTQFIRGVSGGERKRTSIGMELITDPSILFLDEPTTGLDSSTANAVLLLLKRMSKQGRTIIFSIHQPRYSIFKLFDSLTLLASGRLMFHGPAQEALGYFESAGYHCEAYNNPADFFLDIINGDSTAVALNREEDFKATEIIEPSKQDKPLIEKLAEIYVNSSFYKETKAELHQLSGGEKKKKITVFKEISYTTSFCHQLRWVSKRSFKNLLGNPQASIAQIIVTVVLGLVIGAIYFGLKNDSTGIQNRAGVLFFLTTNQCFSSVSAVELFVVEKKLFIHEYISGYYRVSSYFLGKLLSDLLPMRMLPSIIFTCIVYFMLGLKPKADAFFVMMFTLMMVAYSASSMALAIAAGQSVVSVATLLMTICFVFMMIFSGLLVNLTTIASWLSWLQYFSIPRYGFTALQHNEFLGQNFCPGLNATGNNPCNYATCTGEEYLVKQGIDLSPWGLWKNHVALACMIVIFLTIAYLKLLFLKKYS
Description: (§1) C1e. In contrast to PS 1 and 2, the PS- erlotinib conjugate 3 is not the substrate of ABCG2: The influence of PS as substrate for ABCG2 transport was observed by fluorescent microscopy. […] This information is very interesting as it could help to select an effective treatment option to cancer patients with and without expression of ABCG2 transporter.

UMUC3 tumors [2] = test: In vivo uptake in tumor, liver and skin (IVIS), UMUC3 tumors; parameters: species or system SCID mice; conditions: UMUC3 tumor model; 0.47 μmol/kg
Description: C1i. PS with and without erlotinib show high tumor-uptake and significant difference in their pharmacokinetic profiles in UMUC3 and T24 tumors implanted in SCID mice: The SCID mice bearing either UMUC3 or T24 tumors (4-5 mm size) were injected with the PS 30, and the corresponding erlotinib conjugates 6, 34 & 39 with and without iodine functionality. Among the iodinated analogs, the iodobenzyl group was introduced either at the bottom half of 5 or top half of the molecule 39, and were converted into the corresponding radioactive (^124I-) analogs for PET imaging. The non-radioactive analogs were injected in tumored mice (3 mice/group) at a dose of 0.47 μmol/kg), and the mice were imaged at regular time intervals. The dose was selected on the basis of the therapeutic dose of HPPH. The uptake of tumor, liver and skin was measured by IVIS system (3 mice group), and interesting pharmacokinetic profiles of the PS were observed (FIG. 8).
C1j. […] Therefore, the tumors were exposed to light at their optimal uptake time points respectively.

ABCG2 [3] = target: T1, ABCG2; test: ABCG2 substrate specificity: PS uptake with/without Gleevec, UMUC3; assay type: cell-based; conditions: UMUC3 cells; PS 500 nM; Gleevec 5 μM; fluorescence
Description: (§2) T24 cells lack ABCG2 expression.
as §1

ABCG2 [4] = test: ABCG2 substrate specificity: PS uptake with/without Gleevec, T24; assay type: cell-based; conditions: T24 cells (lack ABCG2); PS 500 nM; Gleevec 5 μM; fluorescence
Description: as §2, §1

HNSCC cells = test: 3-D co-culture of HN-85-1-3 and tumor stromal cells; assay type: cell-based; conditions: 1600 nM, 24 h, then 48 h in medium
Description: The cells were washed free of PS and incubated for additional 48 h in medium. The fluorescence for CSFE stromal cells and PS fluorescence was recorded in an inverted fluorescent microscope.
The tumor specificity of the compounds was also confirmed in head & neck cancer using 3D culture system.

UMUC3 tumors [5] = test: HPPH-PDT in combination with BCG, UMUC3 tumors; assay type: in vivo, mice; conditions: HPPH 0.47 μmol/kg in combination with BCG (1-1.5×10^6 CFU SQ weekly×3); 135 J/cm^2, 75 mW/cm^2 at 6 h
Description: For details see the text.
One hour after the PDT treatment, BCG was injected (1-1.5×10^6 CFU), SQ weekly×3 doses, and the day 30 data summarized in FIG. 11, are very encouraging.

HN-85-1-3 cells = test: Growth inhibition of EGF-dependent HNSCC cell cultures; assay type: cell-based; conditions: 3.2 μM, 72 h, RPMI+10% FBS; preliminary experiments
Description: HN-85-1-3 cells were cultured of 72 h in regular growth medium (RPMI+10% FBS) and containing 3.2 μM erlotinib or the indicated PSs. The cell density was photographically recorded at the beginning and end of the culture period. The cell-associated PSs were determined by fluorescence imaging.

CCCCCCOC(C)c1c(C)c2cc3nc(c4c5[nH]c(cc6nc(cc1[nH]2)C(C)=C6CC)c(C)c5C(=O)C4)[C@@H](CCC(=O)O)[C@@H]3C (some centres unmarked) [HPPH, 2-(1-Hexyloxyethyl)-2-devinyl pyropheophorbide-a]
substrate of ABCG2 (ABCG2 [1]): substrates of ABCG2
PDT efficacy with and without Gleevec (ABCG2 [1]; MTT assay): enhancement of PDT efficacy
time of optimal/maximum tumor uptake post-injection (UMUC3 tumors [2]): 24 h
uptake of PS on addition of Gleevec (ABCG2 [3]): significantly increased
uptake of PS on addition of Gleevec (ABCG2 [4]): did not show any significant increase
retention by HNSCC cells in 3-D co-culture (HNSCC cells): low retention
long-term cure compared to HPPH-PDT alone (UMUC3 tumors [5]): improved long-term cure

C#Cc1cccc(Nc2ncnc3cc(OCCOC)c(OCCOC)cc23)c1 [erlotinib]
growth inhibition (HN-85-1-3 cells): cytostatic action
